Literature values as cited in patent US20020192255A1, “Liquid emanator device to deliver self-suspending insecticide droplets” (priority 2001, published 2002).

Conditions: thermal decomposition temperature

Compound	decomposition of the chemical occurs above
C#CCC1=C(C)C(OC(=O)C2C(C=C(C)C)C2(C)C)CC1=O (mixture of isomers) [ETOC-TG, (+)-2-methyl4-oxo-3-(2-propynyl)-2-cyclopentenyl (+)-cis/trans-chrysanthemate]	above 608 ° F.
CC1(C)[C@H](C=C(Cl)Cl)[C@H]1C(=O)OCc1c(F)c(F)cc(F)c1F [transfluthrin]	above 392 ° F.
